Laboratory results published in ChEMBL document CHEMBL6121007, “Design, synthesis and evaluation of pyrimidine derivatives as sedative-hypnotic agents” (Eur J Med Chem, 2025).

Columns and labels:
[1] = Bioavailability in male Sprague-Dawley rat at 2.5 mg/kg, ip measured after 5 to 1440 mins by LC-MS/MS analysis; type: ADME, organism-based; conditions: in vivo, time 5-1440 min
[2] = AUC (0 to t) in male Sprague-Dawley rat at 0.5 mg/kg, iv measured after 2 to 720 mins by LC-MS/MS analysis; type: ADME, organism-based; conditions: in vivo, time 2-720 min
[3] = Drug concentration in male mouse plasma at 10 mg/kg, ip measured after 2 hrs by LC-MS/MS analysis; type: ADME, organism-based
[4] = Cmax in male Sprague-Dawley rat at 0.5 mg/kg, iv measured after 2 to 720 mins by LC-MS/MS analysis; type: ADME, organism-based; conditions: in vivo, time 2-720 min
Mus musculus = assay: Upregulation of serine metabolism related genes in hypothalamus of mouse at 2.5 mg/kg, ip measured after 30 mins by KEGG enrichment analysis relative to control; type: functional; conditions: 0.5 h
[5] = Drug concentration in male mouse brain at 10 mg/kg, ip measured after 2 hrs by LC-MS/MS analysis; type: ADME, organism-based; conditions: read-out: Ct
[6] = AUC (0 to t) in male Sprague-Dawley rat at 2.5 mg/kg, ip measured after 5 to 1440 mins by LC-MS/MS analysis; type: ADME, organism-based; conditions: in vivo, time 5-1440 min

## CCn1c2ccccc2c2cc(Nc3ccnc(Nc4ccc(C)c(OC)c4)n3)ccc21
[1]
  bioavailability: 74.5%
[2]
  AUC(0-t): 801 ng·h/mL
[3]
  concentration at 2 h: 60.4 ng/mL
[4]
  Cmax: 893 ng/mL
Mus musculus
  Activity: 1.73%
[5]
  concentration at 2 h: 23 ng/mL
[6]
  AUC(0-t): 3180 ng·h/mL
